The values below come from patent US12569473B2, “Methods to treat respiratory infection utilizing castanospermine analogs” (60 Degrees Pharmaceuticals, Inc., priority 2022, dated 2026).

The test system of data set [1] is RSV [strain A/A2]. As to the kind of experiment: Pulmonary histopathology in RSV-infected cotton rats. The data set is classed as in vivo, Cotton rats [Sigmodon hispidus]. The following applies: Day 5 post infection, celgosivir 25, 50 or 100 mg/kg BID from one day before or after infection, synagis 2.5 mg/kg i.m. once per day, vs vehicle. Here is the method: (§1) Cotton rats [Sigmodon hispidus, 2 male & 3 female, 6-8 weeks old] provided with standard rodent chow and water ad lib, were infected intranasally with RSV [strain A/A2, 10^5 pfu] on Day 0. Animals received celgosivir [25, 50 or 100 mg/kg BID for total daily doses of 50, 100 or 200 mg/kg] daily beginning one day before or after infection and were sacrificed on Day 5-post-infection for histopathology, qPCR, and viral load assessment. Control groups included a [i] positive control Synagis [2.5 mg/kg, i.m, once per day from the first day post-infection], [ii] vehicle control in which vehicle was administered twice per day beginning one day prior to RSV infection, [iii] a vehicle control group that were mock-infected with PBS for which treatment was initiated beginning one day prior to infection, and [iv] an untreated group mock infected with PBS that received no treatment. Animals were weighed on Day −1 and Day 5, and plasma was obtained by retro-orbital bleed on the same days.
(§2) The RSV strain for inoculation [A/A2 (RSV A/A2) (ATCC, Manassas, VA)] was propagated in HEp-2 cells after serial plaque-purification to reduce defective-interfering particles. A pool of virus designated containing approximately 3.0×10^8 pfu/mL in sucrose stabilizing media was used in the experiment. This stock of virus was stored at −80° C. and was previously characterized in vivo in the cotton rat model and validated for upper and lower respiratory tract replication.
Pulmonary Histopathology: Lungs were removed and inflated with 10% neutral buffered formalin to their normal volume, then fixed [using the same solution]. After fixation, lungs were embedded in paraffin, sectioned, and stained with H&E. Four parameters of pulmonary inflammation were evaluated: peribronchiolitis (inflammatory cell infiltration around the bronchioles), perivasculitis (inflammatory cell infiltration around the small blood vessels), interstitial pneumonia (inflammatory cell infiltration and thickening of alveolar walls), and alveolitis (cells within the alveolar spaces). Slides were blindly scored on a 0-4 severity scale. The scores are subsequently converted to a 0-100% normalized scale.
Statistics: Group means for each parameter were evaluated by one-way ANOVA, then individual group means were compared [t-test, with multiple comparison correction] to the RSV-infected, vehicle-treated control group. P<0.05 was considered statistically significant.

Data set [2] deals with RSV [strain A/A2]. As to the kind of experiment: Nose and lung viral titers in RSV-infected cotton rats. It counts as in vivo, Cotton rats [Sigmodon hispidus]. The following applies: Day 5 post infection, celgosivir 25, 50 or 100 mg/kg BID from one day before or after infection, synagis 2.5 mg/kg i.m. once per day, vs vehicle. Here is the method:
as §1, §2
Viral Titers: Nose and lung homogenates were centrifuged and diluted in EMEM. Confluent HEp-2 monolayers were infected in duplicate with diluted homogenates in 24-well plates. Following one hour incubation at 37° C. […] Plaques were counted and virus titer determined as geometric mean plaque-forming units per gram of tissue±standard error for all animals in a group at a given time.
Statistics: Group means for each parameter were evaluated by one-way ANOVA, then individual group means were compared [t-test, with multiple comparison correction] to the RSV-infected, vehicle-treated control group. […]

The test system of data set [3] is human rhinovirus-14. As to the kind of experiment: Neutral red assay of CPE inhibition, human rhinovirus-14. It counts as cell-based. The following applies: HeLa Ohio cells, unit inferred. Here is the method: (§3) The efficacy of celgosivir and castanospermine against RSV and human rhinovirus-14 was assessed in vitro. For RSV studies, embryonic African green monkey kidney cells (MA-104) were grown in minimal essential medium (MEM) supplemented with 0.1% NaHCO3 and 10% fetal bovine serum. When performing antiviral assays, serum was reduced to 2% and […] gentamicin was added to the medium. RSV strain A2 was used for the studies. For rhinovirus studies, the HeLa Ohio cell line was used in place of MA-104 cells.
(§4) CPE inhibition assays with visual quantification of antiviral activity and cytotoxicity were performed as described by Sidwell and Huffman (1971) with slight modifications. Sidwell, R. W. and Huffman, J. H. (1971) Use of disposable micro-tissue culture plates for antiviral and interferon induction studies. Appl. Microbiol. 22, […]. […] All compounds were assayed for virus inhibition in quadruplicate and for cytotoxicity in duplicate. For rhinovirus studies, Pirodavir was applied at a concentration of 0.001-1 μg/ml as the positive control compound. For RSV studies, the positive control compound was Ribavirin applied at a concentration of 0.5-500 μg/ml. For each compound, two wells were set aside as uninfected, untreated cell controls per test and four wells per test received virus only and represented controls for virus replication. […] A selective index (S.I.) was calculated for each compound (SI.=(IC50)/(EC50)).
(§5) Neutral red assay of CPE inhibition and cytotoxicity was performed by a modified method as described by Cavenaugh et al. (1990). […] Briefly, medium was removed from each well of a plate scored for CPE from the visual CPE inhibition assay, 0.2 ml of neutral red (0.034% in PSS) was added to each of the wells of that plate and the plate incubated for 2 h at 37° C. in the dark. […] Absorbances at 540 and 450 nm were read with a microplate reader (Bio-Tek EL 1309; Bio-Tek Instruments). […] Absorbance values were expressed as percentages of untreated controls and EC50 and IC50 values were calculated by regression analysis

In data set [4] the test system is human rhinovirus-14. As to the kind of experiment: CPE inhibition assay, visual examination, human rhinovirus-14. It counts as cell-based. The following applies: for EC50: visual examination, HeLa Ohio cells, unit inferred. Here is the method: as §3
(§6) CPE inhibition assays with visual quantification of antiviral activity and cytotoxicity were performed as described by Sidwell and Huffman (1971) with slight modifications. Sidwell, R. W. and Huffman, J. H. (1971) Use of disposable micro-tissue culture plates for antiviral and interferon induction studies. Appl. Microbiol. 22, […]. […] All compounds were assayed for virus inhibition in quadruplicate and for cytotoxicity in duplicate. For rhinovirus studies, Pirodavir was applied at a concentration of 0.001-1 μg/ml as the positive control compound. For RSV studies, the positive control compound was Ribavirin applied at a concentration of 0.5-500 μg/ml. For each compound, two wells were set aside as uninfected, untreated cell controls per test and four wells per test received virus only and represented controls for virus replication. […] For all CPE-based assays, the 50% effective concentration (EC50) was calculated by regression analysis using the means of the CPE ratings at each concentration of compound. Morphological changes due to compound cytotoxicity were graded on a scale of 0-5; grade 5 was defined as 100% cytotoxicity. The 50% cytotoxic dose (IC50) was calculated by regression analysis. A selective index (S.I.) was calculated for each compound (SI.=(IC50)/(EC50)).

Data set [5] can be described thus: Cytotoxicity, visual examination, HeLa Ohio cells. The data set is classed as cell-based. The following applies: human, unit inferred. Here is the method: as §3, §6
A short description of data set [6]: Cytotoxicity, neutral red assay, HeLa Ohio cells. It counts as cell-based. The following applies: human, unit inferred. Here is the method: as §3, §4, §5
For data set [7] the following is noted: CELADEN study regimen; cited from earlier work.
The nature of data set [8]: Cytotoxicity, neutral red assay, MA-104 cells. It counts as cell-based. The following applies: African green monkey, MA-104 cells (embryonic African green monkey kidney), unit inferred. Here is the method: as §3, §4, §5
For data set [9] the following is noted: mice; 50 mg/kg BID dose; cited from earlier work.
Data set [10] has as its system RSV strain A2. As to the kind of experiment: Neutral red assay of CPE inhibition, RSV. It counts as cell-based. The following applies: human respiratory syncytial virus, MA104, MA-104 cells, unit inferred. Here is the method: as §3, §4, §5
For data set [11], the system named is RSV strain A2. As to the kind of experiment: CPE inhibition assay, visual examination, RSV. The following applies: human respiratory syncytial virus, MA104, visual examination, MA-104 cells, unit inferred. The data set is classed as cell-based. Here is the method:
as §3, §6

In data set [12] the test system is embryonic African green monkey kidney cells (MA-104). As to the kind of experiment: Cytotoxicity, visual examination, MA-104 cells. It counts as cell-based. Here is the method:
as §3, §6

A short description of data set [13]: Cytotoxicity, visual examination, MA-104 cells. The data set is classed as cell-based, African green monkey. The following applies: African green monkey. Here is the method: as §3, §6
The mark [14] stands for this setting: positive control applied at 0.001-1 μg/ml.
The mark [15] stands for this setting: compounds tested at 0.3, 3, 30 and 300 microM.
Setting [16] is: positive control applied at 0.5-500 μg/ml.

A value given as a limit tells only on which side of the number the result lay.

With “Synagis: positive control in cotton rat RSV study, 2.5 mg/kg i.m. once per day”, the “lung histopathology scores (RSV-induced inflammation)” value with RSV [strain A/A2] [1] is “statistically significant reductions across all four histopathology domains”. In addition, the “nasal and lung viral titer” value in the data set on RSV [strain A/A2] [2] was “decrease viral titer”.

What is called EC50 is the concentration that produces a half-maximal response. What is called CC50 is the concentration that lowers cell viability or growth by half. Consider `CCOC(=O)c1ccc(OCCC2CCN(c3ccc(C)nn3)CC2)cc1` [Pirodavir, reference compound], for which the concentration giving a half-maximal response (EC50) stood at 0.031 µg/mL in the data set on human rhinovirus-14 [3] (setting [14]) and 0.032 µg/mL with human rhinovirus-14 [4] (setting [14]). The 50% cytotoxic concentration (CC50) at 6 days in data set [5] (setting [14]) and in [6] (setting [14]) was greater than 1 µg/mL throughout.

On to `O[C@H]1[C@H](O)[C@@H](O)CN2CC[C@H](O)[C@H]12` [Castanospermine], for which the “steady state maximum castanospermine concentration” value in data set [7] is on record as 5100 nanograms/ml. The cytotoxic concentration (CC50) at 6 days in [8] (setting [15]), in data set [5] (setting [15]), in data set [13] (CC50) and in data set [6] (setting [15]) was greater than 300 µM in each case. For the same molecule, the “steady state minimum castanospermine concentration” value in [9] is recorded as 400 nanograms/ml. Also, the 50% effective concentration (EC50) with human rhinovirus-14 [3] (setting [15]), in the data set on human rhinovirus-14 [4] (setting [15]), in the data set on RSV strain A2 [10] (setting [15]) and with RSV strain A2 [11] (setting [15]) was greater than 300 µM each time. The “efficacy against human rhinovirus-14” value in the data set with human rhinovirus-14 [4] (at the concentrations tested (0.3-300 microM)) is “Neither celgosivir nor castanospermine were determined to be efficacious”. The “safety in vitro (CC50 above the highest concentration tested)” value in [12] is recorded as “safe at all concentrations tested”.

Take `NC(=O)c1ncn([C@@H]2O[C@H](CO)[C@@H](O)[C@H]2O)n1` [Ribavirin, reference compound]: the half-maximal cytotoxic concentration (CC50) at 6 days is 62 µg/mL in data set [8] (setting [16]) and 340 µg/mL in data set [13] (MA-104 cells (embryonic African green monkey kidney), visual examination, MA-104 cells, positive control applied at 0.5-500 μg/ml, unit inferred, read-out: CC50). The 50% effective concentration (EC50) came to 2.8 µg/mL in the data set on RSV strain A2 [10] (setting [16]) and 4 µg/mL with RSV strain A2 [11] (setting [16]).
